Source: patent publication US20240294489A1 (Captor Therapeutics S.A., priority 2020, published 2024)

What was measured:
Type in all cases: cell-based
MOLT-3 = assay: Cell viability, additional cell lines (CellTiter-Glo), MOLT-3; conditions: Homo sapiens, MOLT-3, 72 h
Procedure: (§1) Tumor cells are grown at 37° C. in a humidified atmosphere with 5% CO2 in RPMI 1640 medium, supplemented with 10% (v/v) fetal calf serum and 50 μg/ml gentamicin for up to 20 passages, and are passaged once or twice weekly.
(§2) Cells are harvested from exponential phase cultures, counted and plated in 96 well flat-bottom microtiter plates at a cell density depending on the cell line's growth rate (4,000-20,000 cells/well depending on the cell line's growth rate, up to 60,000 for hematological cancer cell lines) in RPMI 1640 medium supplemented with 10% (v/v) fetal calf serum and 50 μg/ml gentamicin (140 μl/well). Cultures are incubated at 37° C. and 5% CO2 in a humidified atmosphere. After 24 h, 10 μl of test compounds or control medium are added and left on the cells for another 72 h. Compounds are serially diluted in DMSO, transferred in cell culture medium, and added to the assay plates by using a Tecan Freedom EVO 200 robotic platform. The DMSO concentration is kept constant at 0.3% v/v across the assay plate. Viability of cells is quantified by the CellTiter-Glo® cell viability assay (Promega G8462). After incubation of cells, 100 μl of CellTiter-Glo® One Solution Assay reagent are added to each well. Plates are shaken for 2 minutes to induce cell lysis and incubated for 20 minutes prior to reading luminescence (LU) by using the EnVision® Xcite multilabel plate reader (Perkin Elmer). […]

KG-1 cells = assay: Cell viability CTG assay, KG-1; conditions: Homo sapiens; KG-1, 72 h, 0.001-50 μM; read-out: KG-1 Geomean absolute IC50 by molecule, 72 H
In short: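 Cells exposed to compound at 0.25% v/v DMSO for 72 h (37° C., 5% CO2). ATP quantified by CellTiter-Glo luminescence, normalized to DMSO control. Absolute IC50 (T/C=50%) by non-linear regression on duplicate means; geometric mean used for averages.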

GSPT1 = biological target: T1, GSPT1 (Homo sapiens, UniProt P15170+Q96SW2); assay: GSPT1 degradation assay, Hep3B cell line; conditions: HEP3B cells, 24 h, read-out: % of GSPT1 protein reduction
T1 construct: GSPT1 degradation in the Hep3B cell line was investigated; endogenous in cells; host or cells: Hep3B
T1 sequence (P15170 whole entry): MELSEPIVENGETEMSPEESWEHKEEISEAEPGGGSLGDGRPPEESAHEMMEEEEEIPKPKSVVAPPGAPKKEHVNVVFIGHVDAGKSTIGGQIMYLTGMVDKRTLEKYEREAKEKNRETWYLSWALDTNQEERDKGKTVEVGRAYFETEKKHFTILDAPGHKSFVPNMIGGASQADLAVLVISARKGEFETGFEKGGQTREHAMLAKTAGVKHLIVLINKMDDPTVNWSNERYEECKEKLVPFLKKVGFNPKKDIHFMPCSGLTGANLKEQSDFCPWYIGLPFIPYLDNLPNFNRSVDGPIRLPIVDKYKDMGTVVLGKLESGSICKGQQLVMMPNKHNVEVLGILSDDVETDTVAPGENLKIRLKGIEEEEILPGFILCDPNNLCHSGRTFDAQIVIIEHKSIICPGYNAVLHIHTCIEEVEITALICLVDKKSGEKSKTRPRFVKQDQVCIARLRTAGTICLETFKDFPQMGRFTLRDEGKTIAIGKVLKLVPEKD
T1 sequence (Q96SW2 whole entry): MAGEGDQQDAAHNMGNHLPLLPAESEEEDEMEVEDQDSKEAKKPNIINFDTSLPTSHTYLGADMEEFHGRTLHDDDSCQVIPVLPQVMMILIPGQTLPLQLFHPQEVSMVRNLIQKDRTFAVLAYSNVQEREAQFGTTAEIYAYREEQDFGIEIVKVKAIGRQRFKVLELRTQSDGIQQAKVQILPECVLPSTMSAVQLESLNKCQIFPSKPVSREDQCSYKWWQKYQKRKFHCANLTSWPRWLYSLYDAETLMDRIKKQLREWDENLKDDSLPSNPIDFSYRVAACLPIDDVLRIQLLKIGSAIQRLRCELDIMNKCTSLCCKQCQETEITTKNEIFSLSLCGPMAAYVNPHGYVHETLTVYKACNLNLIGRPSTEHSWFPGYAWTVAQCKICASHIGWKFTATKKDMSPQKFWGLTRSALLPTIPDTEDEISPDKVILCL
T1 sequence (Q16531 whole entry partner): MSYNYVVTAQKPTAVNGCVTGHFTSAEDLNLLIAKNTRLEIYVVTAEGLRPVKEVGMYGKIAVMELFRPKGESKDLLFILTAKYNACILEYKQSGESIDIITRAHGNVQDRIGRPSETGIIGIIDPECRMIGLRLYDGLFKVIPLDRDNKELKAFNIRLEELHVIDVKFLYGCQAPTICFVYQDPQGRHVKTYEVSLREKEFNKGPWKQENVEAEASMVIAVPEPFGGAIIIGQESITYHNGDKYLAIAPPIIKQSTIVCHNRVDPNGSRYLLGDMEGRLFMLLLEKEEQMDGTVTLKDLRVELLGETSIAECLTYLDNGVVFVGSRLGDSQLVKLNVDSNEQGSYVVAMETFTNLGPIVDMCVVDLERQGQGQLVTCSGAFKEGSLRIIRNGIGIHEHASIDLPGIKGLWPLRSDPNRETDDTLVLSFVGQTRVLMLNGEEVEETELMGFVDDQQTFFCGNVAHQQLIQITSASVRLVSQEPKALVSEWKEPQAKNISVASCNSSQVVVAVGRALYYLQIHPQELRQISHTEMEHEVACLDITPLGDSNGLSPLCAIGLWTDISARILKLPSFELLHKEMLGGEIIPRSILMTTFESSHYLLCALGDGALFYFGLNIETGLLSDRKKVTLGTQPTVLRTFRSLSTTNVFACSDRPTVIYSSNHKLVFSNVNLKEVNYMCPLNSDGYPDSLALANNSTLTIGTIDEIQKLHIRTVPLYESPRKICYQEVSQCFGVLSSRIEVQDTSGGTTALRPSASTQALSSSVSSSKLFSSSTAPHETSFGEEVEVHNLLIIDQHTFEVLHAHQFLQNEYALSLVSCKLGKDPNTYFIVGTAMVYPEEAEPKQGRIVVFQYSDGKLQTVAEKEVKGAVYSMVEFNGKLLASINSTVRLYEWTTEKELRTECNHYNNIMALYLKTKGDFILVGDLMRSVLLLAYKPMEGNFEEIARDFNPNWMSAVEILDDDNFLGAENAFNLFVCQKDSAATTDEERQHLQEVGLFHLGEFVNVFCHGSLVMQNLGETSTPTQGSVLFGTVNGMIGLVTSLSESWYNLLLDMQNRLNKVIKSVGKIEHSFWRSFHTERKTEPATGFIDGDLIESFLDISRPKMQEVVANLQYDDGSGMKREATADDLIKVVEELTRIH
In short: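 Hep3B cells treated 24 h at 37 °C with compounds across a concentration range (0.25% DMSO final). GSPT1 level measured by western blot densitometry, normalized to loading control and expressed as % of DMSO control.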

UOC-M1 = assay: Cell viability, additional cell lines (CellTiter-Glo), UOC-M1; conditions: UOC-M1, 72 h
Procedure: as §1, §2

HEP-3B = assay: Cell viability, additional cell lines (CellTiter-Glo), HEP-3B; conditions: Homo sapiens, Hep3B, 72 h
Procedure: as §1, §2

22Rv1 = assay: Cell viability, additional cell lines (CellTiter-Glo), 22Rv1; conditions: Homo sapiens, 22Rv1, 72 h
Procedure: as §1, §2

OPM-2 = assay: Cell viability, additional cell lines (CellTiter-Glo), OPM-2; conditions: Homo sapiens, OPM-2, 72 h; read-out: Absolute IC50
Procedure: as §1, §2

Hep3B cells = assay: Cell survival clonogenic assay, Hep3B; conditions: 0.1-10 μM, crystal violet staining after 9-10 days
Procedure: To determine the ability of a single cell to form a colony (defined as a cluster of at least 50 cells), Kelly and Hep3B cells were maintained in RPM11640 (Kelly) or EMEM (Hep3B) medium, supplemented with penicillin/streptomycin and 10% FBS. The cells were counted and seeded on the 6-well plates, at the density of 1×10^3 cells per well, the compounds to be tested were added at the desired concentration range, and the cells were cultured at 37° C./5% CO2. After colony formation (9-10 days), the cells were washed and treated with 6.0% glutaraldehyde and 0.5% crystal violet mix for 30 min., followed by rinsing with water and drying at room temperature (RT).

MOLM-1 = assay: Cell viability, additional cell lines (CellTiter-Glo), MOLM-1; conditions: MOLM-1, 72 h
Procedure: as §1, §2

[1] = 9.5 μM, read-out: Test/Control viability at 9.5 μM

IC50 (MOLT-3; read-out: Absolute IC50): ≥ 30000 nM
inhibition at 1 µM (GSPT1; 1 uM): 80 to 100%
inhibition at 10 µM (GSPT1; 10 uM): 80 to 100%
IC50 (HEP-3B; read-out: Absolute IC50): 100 to 1000 nM
IC50 (22Rv1; read-out: Absolute IC50): ≥ 30000 nM
IC50 (MOLM-1; read-out: Absolute IC50): ≤ 100 nM
Compound: NCc1ccc2c(c1)CN(C1CCC(=O)NC1=O)C2=O (stereo not drawn) [Compound 1, 3-(5-(aminomethyl)-1-oxoisoindolin-2-yl)piperidine-2,6-dione]
viability at 9.5 µM (MOLT-3; [1]): ≤ 60%
IC50 (KG-1 cells): ≤ 100 nM
viability at 9.5 µM (UOC-M1; [1]): ≤ 30%
IC50 (UOC-M1; read-out: Absolute IC50): ≤ 100 nM
viability at 9.5 µM (HEP-3B; [1]): ≤ 30%
viability at 9.5 µM (22Rv1; [1]): ≤ 60%
IC50 (OPM-2): > 30000 nM
survival of the cells (colony formation) (Hep3B cells): in most cases inhibited
viability at 9.5 µM (MOLM-1; [1]): ≤ 30%
